Experimental data as given in patent US11377442B2, “Small molecule agonists and antagonists of NR2F6 activity” (ZANDER THERAPEUTICS, INC., priority 2016, dated 2022).
Blank lines part the entries; values can stand above or below the molecule they belong to.

Molecular target: T1, NR2F6 (Homo sapiens, UniProt P10588)
T1 construct: expressed in transfected cells; also transient transfection
T1 sequence (P10588 1-404): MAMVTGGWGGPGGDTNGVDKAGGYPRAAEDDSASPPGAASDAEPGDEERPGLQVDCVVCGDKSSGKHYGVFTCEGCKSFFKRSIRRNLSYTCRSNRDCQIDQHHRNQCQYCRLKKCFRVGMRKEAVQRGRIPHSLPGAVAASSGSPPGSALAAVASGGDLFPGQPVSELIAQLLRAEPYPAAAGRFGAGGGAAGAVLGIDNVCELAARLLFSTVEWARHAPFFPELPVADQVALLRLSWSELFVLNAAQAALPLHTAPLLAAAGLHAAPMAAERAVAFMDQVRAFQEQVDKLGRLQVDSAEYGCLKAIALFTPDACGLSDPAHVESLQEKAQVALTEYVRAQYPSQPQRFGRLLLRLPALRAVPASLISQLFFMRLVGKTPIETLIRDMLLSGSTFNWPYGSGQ
Assay: NR2F6 agonist screening, Firefly signal cmpd/DMSO
Type: cell-based
Parameters: Firefly NR2F6 full length, cmpd/DMSO (mean) / Firefly F4, cmpd/DMSO (mean): unit of the concentration uncertain
Conditions: for Firefly/Renilla (NR2F6 stable, clone F4): ratio Firefly/Renilla; for Firefly, NR2F6 stable (clone F4)/pGL4: ratio of Firefly in NR2F6 stable clone F4 to pGL4

[1] = C11 analogs follow set (Tables 2-10)
[2] = Concentration 2 (unit uncertain)
[3] = Concentration 10 (unit uncertain)
[4] = Concentration 40 (unit uncertain)

SMILES: Cc1ccc(CNC(=O)c2ccc3oc(=O)c(S(=O)(=O)c4ccc(Cl)cc4)cc3c2)cc1 [Compound C116]
Firefly, cmpd/DMSO repeat 1 [1]: 8.6
Firefly, cmpd/DMSO repeat 2 [1]: 9.0

SMILES: COc1ccc(OC)c(S(=O)(=O)NCc2nc3nc(C)cc(C)n3n2)c1 [Compound E4]
Firefly F4, cmpd/DMSO (mean) [2]: 0.9
Firefly NR2F6 full length, cmpd/DMSO (mean) [2]: 1.1
Firefly F4, cmpd/DMSO (mean) [3]: 0.9
Firefly NR2F6 full length, cmpd/DMSO (mean) [3]: 1.0
Firefly F4, cmpd/DMSO (mean) [4]: 0.8
Firefly NR2F6 full length, cmpd/DMSO (mean) [4]: 1.0

SMILES: Cc1cc(S(=O)(=O)c2cc3cc(F)cc(F)c3oc2=O)ccc1F [Compound C292]
Firefly, cmpd/DMSO repeat 1 (Table 11): 18.3
Firefly, cmpd/DMSO repeat 2 (Table 11): 14.8
Firefly/Renilla (NR2F6 stable, clone F4) (Table 13): 1.1
Firefly, NR2F6 stable (clone F4)/pGL4 (Table 13): 9.7
Firefly, cmpd/DMSO repeat 1 (Table 13): 18.3
Firefly, cmpd/DMSO repeat 2 (Table 13): 14.8

SMILES: COc1ccc(OC)c(S(=O)(=O)c2cc3cccc(OC)c3oc2=O)c1 [Compound C249]
Firefly, cmpd/DMSO repeat 1 (Table 9): 1.4
Firefly, cmpd/DMSO repeat 2 (Table 9): 1.5

SMILES: Cc1ccc(S(=O)(=O)c2cc3cc(Br)cc(Br)c3oc2=O)cc1C [Compound C285]
Firefly, cmpd/DMSO repeat 1 (Table 11): 1.0
Firefly, cmpd/DMSO repeat 2 (Table 11): 1.0

SMILES: O=C(NCCc1ccccc1)c1ccc2oc(=O)c(S(=O)(=O)c3ccc(Cl)cc3)cc2c1 [Compound C114]
Firefly, cmpd/DMSO repeat 1 [1]: 4.5
Firefly, cmpd/DMSO repeat 2 [1]: 4.7

SMILES: COc1ccc(-c2noc(Cn3ncc(C)cc3=O)n2)cc1 [Compound Z152]
Firefly, cmpd/DMSO (mean): 1.6

SMILES: O=c1oc2c(Br)cc(Br)cc2cc1S(=O)(=O)c1ccc(Cl)c(Cl)c1 [Compound C287]
Firefly, cmpd/DMSO repeat 1 (Table 11): 3.0
Firefly, cmpd/DMSO repeat 2 (Table 11): 2.6

SMILES: COc1ccc(S(=O)(=O)c2cc3cccc(OC)c3oc2=O)cc1OC [Compound C247]
Firefly, cmpd/DMSO repeat 1 (Table 9): 2.2
Firefly, cmpd/DMSO repeat 2 (Table 9): 1.6

SMILES: CCOc1cccc2cc(S(=O)(=O)c3ccc(F)c(Cl)c3)c(=O)oc12 [Compound C251]
Firefly, cmpd/DMSO repeat 1 (Table 9): 2.1
Firefly, cmpd/DMSO repeat 2 (Table 9): 1.9

SMILES: COc1ccc2cc(S(=O)(=O)c3ccc(C(C)(C)C)cc3)c(=O)oc2c1 [Compound C268]
Firefly, cmpd/DMSO repeat 1 [1]: 2.8
Firefly, cmpd/DMSO repeat 2 [1]: 3.1

SMILES: O=C(Nc1ccccc1C(F)(F)F)c1ccc2oc(=O)c(S(=O)(=O)c3ccc(F)cc3)cc2c1 [Compound C120]
Firefly, cmpd/DMSO repeat 1 [1]: 4.5
Firefly, cmpd/DMSO repeat 2 [1]: 6.3

SMILES: COc1ccc(Cl)cc1S(=O)(=O)NCc1nc2nc(C)cc(C)n2n1 [Compound E15]
Firefly F4, cmpd/DMSO (mean) [2]: 1.3
Firefly NR2F6 full length, cmpd/DMSO (mean) [2]: 1.2
Firefly F4, cmpd/DMSO (mean) [3]: 1.1
Firefly NR2F6 full length, cmpd/DMSO (mean) [3]: 0.8
Firefly F4, cmpd/DMSO (mean) [4]: 0.8
Firefly NR2F6 full length, cmpd/DMSO (mean) [4]: 1.1

SMILES: Cc1cccc(NC(=O)c2ccc3oc(=O)c(S(=O)(=O)c4ccc(F)cc4)cc3c2)c1C [Compound C135]
Firefly, cmpd/DMSO repeat 1 [1]: 5.6
Firefly, cmpd/DMSO repeat 2 [1]: 4.9

SMILES: COc1ccc(CNC(=O)c2ccc3oc(=O)c(S(=O)(=O)c4ccc(F)cc4)cc3c2)cc1 [Compound C117]
Firefly, cmpd/DMSO repeat 1 [1]: 17.3
Firefly, cmpd/DMSO repeat 2 [1]: 24.1

SMILES: Cc1ccc(NC(=O)c2ccc3oc(=O)c(S(=O)(=O)c4ccc(Cl)cc4)cc3c2)cc1C [Compound C170]
Firefly, cmpd/DMSO repeat 1 [1]: 1.7
Firefly, cmpd/DMSO repeat 2 [1]: 1.6

Now from value to molecule:

Firefly, cmpd/DMSO repeat 1 [1]: 1.5
Firefly, cmpd/DMSO repeat 2 [1]: 1.2
SMILES: COc1ccc2oc(=O)c(S(=O)(=O)c3ccc(F)c(Cl)c3)cc2c1 [Compound C158]

Firefly, cmpd/DMSO repeat 1 (Table 9): 1.0
Firefly, cmpd/DMSO repeat 2 (Table 9): 1.3
SMILES: COc1cccc2cc(S(=O)(=O)c3ccc(C)c(Cl)c3)c(=O)oc12 [Compound C228]

Firefly, cmpd/DMSO repeat 1 [1]: 11.8
Firefly, cmpd/DMSO repeat 2 [1]: 11.4
SMILES: Cc1ccc(S(=O)(=O)c2cc3cc(C(=O)Nc4ccc(C)c(C)c4)ccc3oc2=O)cc1 [Compound C168]

Firefly, cmpd/DMSO repeat 1 (Table 9): 2.1
Firefly, cmpd/DMSO repeat 2 (Table 9): 1.6
SMILES: COc1cccc2cc(S(=O)(=O)c3ccc(F)c(C)c3)c(=O)oc12 [Compound C257]

Firefly/Renilla (NR2F6 stable, clone F4) (Table 12): 4.0
Firefly, NR2F6 stable (clone F4)/pGL4 (Table 12): 10.1
Firefly, cmpd/DMSO repeat 1 (Table 12): 21.5
Firefly, cmpd/DMSO repeat 2 (Table 12): 15.2
SMILES: Cc1ccc2oc(=O)c(S(=O)(=O)c3cccc(C#N)c3)cc2c1 [Compound C299]

Firefly, cmpd/DMSO repeat 1 [1]: 45.1
Firefly, cmpd/DMSO repeat 2 [1]: 44.8
Firefly/Renilla (NR2F6 stable, clone F4) (Table 13): 1.0
Firefly, NR2F6 stable (clone F4)/pGL4 (Table 13): 9.9
Firefly, cmpd/DMSO repeat 1 (Table 13): 45.1
Firefly, cmpd/DMSO repeat 2 (Table 13): 44.8
SMILES: COc1cccc(NC(=O)c2ccc3oc(=O)c(S(=O)(=O)c4ccc(C)cc4)cc3c2)c1 [Compound C126]

Firefly, cmpd/DMSO repeat 1 [1]: 0.9
Firefly, cmpd/DMSO repeat 2 [1]: 1.2
SMILES: COc1ccc(S(=O)(=O)c2cc3ccc(OC)cc3oc2=O)cc1 [Compound C266]

Firefly, cmpd/DMSO repeat 1 [1]: 15.7
Firefly, cmpd/DMSO repeat 2 [1]: 14.1
Firefly/Renilla (NR2F6 stable, clone F4) (Table 12): 1.7
Firefly, NR2F6 stable (clone F4)/pGL4 (Table 12): 6.1
Firefly, cmpd/DMSO repeat 1 (Table 12): 15.7
Firefly, cmpd/DMSO repeat 2 (Table 12): 14.1
SMILES: Cc1ccc(S(=O)(=O)c2cc3cc(Cl)ccc3oc2=O)cc1 [Compound C202]

Firefly, cmpd/DMSO repeat 1 [1]: 1.8
Firefly, cmpd/DMSO repeat 2 [1]: 2.4
SMILES: O=c1oc2ccc(Br)cc2cc1S(=O)(=O)c1cccc(Cl)c1 [Compound C192]

Firefly, cmpd/DMSO repeat 1 (Table 9): 2.0
Firefly, cmpd/DMSO repeat 2 (Table 9): 3.3
SMILES: CCOc1cccc2cc(S(=O)(=O)c3ccc(C)c(C)c3)c(=O)oc12 [Compound C243]

Firefly, cmpd/DMSO repeat 1 (Table 9): 1.0
Firefly, cmpd/DMSO repeat 2 (Table 9): 1.3
SMILES: COc1cccc2cc(S(=O)(=O)c3cc(C)cc(C)c3)c(=O)oc12 [Compound C227]

Firefly, cmpd/DMSO repeat 1 [1]: 17.6
Firefly, cmpd/DMSO repeat 2 [1]: 14.8
Firefly/Renilla (NR2F6 stable, clone F4) (Table 13): 1.1
Firefly, NR2F6 stable (clone F4)/pGL4 (Table 13): 6.3
Firefly, cmpd/DMSO repeat 1 (Table 13): 17.6
Firefly, cmpd/DMSO repeat 2 (Table 13): 14.8
SMILES: Cc1ccc(S(=O)(=O)c2cc3cc(Br)ccc3oc2=O)cc1 [Compound C197]

Firefly, cmpd/DMSO repeat 1 [1]: 0.7
Firefly, cmpd/DMSO repeat 2 [1]: 1.1
SMILES: COc1ccc2cc(S(=O)(=O)c3ccc(F)c(C)c3)c(=O)oc2c1 [Compound C282]

Firefly, cmpd/DMSO repeat 1 (Table 9): 7.4
Firefly, cmpd/DMSO repeat 2 (Table 9): 6.5
SMILES: CCOc1cccc2cc(S(=O)(=O)c3ccc(Cl)c(Cl)c3)c(=O)oc12 [Compound C246]

Firefly, cmpd/DMSO repeat 1 [1]: 6.5
Firefly, cmpd/DMSO repeat 2 [1]: 9.0
SMILES: O=c1oc2ccc([N+](=O)[O-])cc2cc1S(=O)(=O)c1ccc(Cl)c(Cl)c1 [Compound C153]

Firefly, cmpd/DMSO repeat 1 [1]: 7.6
Firefly, cmpd/DMSO repeat 2 [1]: 7.2
Firefly/Renilla (NR2F6 stable, clone F4) (Table 12): 3.3
Firefly, NR2F6 stable (clone F4)/pGL4 (Table 12): 3.9
Firefly, cmpd/DMSO repeat 1 (Table 12): 7.6
Firefly, cmpd/DMSO repeat 2 (Table 12): 7.2
SMILES: Cc1cc(S(=O)(=O)c2cc3ccccc3oc2=O)ccc1F [Compound C110]

Firefly, cmpd/DMSO repeat 1 [1]: 6.6
Firefly, cmpd/DMSO repeat 2 [1]: 11.4
SMILES: Cc1cc(S(=O)(=O)c2cc3cc(Cl)ccc3oc2=O)ccc1F [Compound C224]

Firefly, cmpd/DMSO repeat 1 [1]: 1.0
Firefly, cmpd/DMSO repeat 2 [1]: 1.3
SMILES: COc1ccc2cc(S(=O)(=O)c3ccc(C)cc3)c(=O)oc2c1 [Compound C265]

Firefly, cmpd/DMSO repeat 1 [1]: 10.4
Firefly, cmpd/DMSO repeat 2 [1]: 6.5
Firefly/Renilla (NR2F6 stable, clone F4) (Table 13): 1.1
Firefly, NR2F6 stable (clone F4)/pGL4 (Table 13): 6.2
Firefly, cmpd/DMSO repeat 1 (Table 13): 10.4
Firefly, cmpd/DMSO repeat 2 (Table 13): 6.5
SMILES: O=c1oc2ccc(Cl)cc2cc1S(=O)(=O)c1ccccc1F [Compound C220]

Firefly, cmpd/DMSO repeat 1 (Table 9): 1.2
Firefly, cmpd/DMSO repeat 2 (Table 9): 1.8
SMILES: COc1cccc2cc(S(=O)(=O)c3ccc(F)c(Cl)c3)c(=O)oc12 [Compound C250]
